Assay results: US20100249175A1, “Dicationic compounds which selectively recognize G-quadruplex DNA” (priority 2005, published 2010)

Assays:
[1] = test system: modified human telomere sequences; test: CD titration with modified human telomere sequences; format: binding; settings: 50 mM KCl, 10 mM K2HPO4, 0.1 mM EDTA, pH 7.0
Excerpt: (§1) The oligonucleotides d[AG3(T2AG3)3] (SEQ ID NO: 1), d[AG3TG4AG3TG4A] (SEQ ID NO: 2), d[G4(T4G4)3] (SEQ ID NO: 3), d[(T2G4)4] (SEQ ID NO: 4), d[(GC)7] (SEQ ID NO: 5), d[[…]] (SEQ ID NO: 6), d[G2T2G2TGTG2T2G2] (SEQ ID NO: 7), d[[…]] (SEQ ID NO: 8), d[[…]] (SEQ ID NO: 9), d[[…]] (SEQ ID NO: 10), d[[…]] (SEQ ID NO: 11), d[TTAGGGT] (SEQ ID NO: 12), and d[TGGGGT] (SEQ ID NO: 13) were purchased with HPLC purification from Midland Certified Reagent Company (The Midland Certified Reagent Company, Inc., Midland, Tex., USA). The concentration of each DNA sample was determined spectrophotometrically at 260 nm using the nearest neighbor extinction coefficient.
Stock solutions of individual dicationic polyaryl compounds were prepared in double distilled water and diluted to working concentrations immediately before use with buffer. […] Absorbance spectra were obtained on a Varian Cary 300 BIO UV-visible spectrophotometer (Varian, Inc., Palo Alto, Calif., United States of America) in a quartz cell with a 1 cm pathlength. CD spectra were recorded using a Jasco J-810 spectrapolarimeter (Jasco, Inc., Easton, Md., United States of America) in a 1-cm cell using an instrument scanning speed of 50 nm/min with a response time of 1 s. The spectra were averaged over four scans. A buffer baseline scan was collected in the same cuvette and subtracted from the average scan for each sample. […]

[2] = test system: Tetrahymena telomere, d[(T2G4)4] (SEQ ID NO: 4); test: CD titration with Tetrahymena telomere; format: binding; settings: HEPES buffer containing 50 mM KCl
Excerpt: as §1
Stock solutions of individual dicationic polyaryl compounds were prepared in double distilled water and diluted to working concentrations immediately before use with buffer. All measurements were performed at 20° C. in a 10 mM HEPES buffer (pH 7.4) containing 3 mM EDTA and 50 mM KCl, NaCl, or LiCl. Absorbance spectra were obtained on a Varian Cary 300 BIO UV-visible spectrophotometer (Varian, Inc., Palo Alto, Calif., United States of America) in a quartz cell with a 1 cm pathlength. CD spectra were recorded using a Jasco J-810 spectrapolarimeter (Jasco, Inc., Easton, Md., United States of America) in a 1-cm cell using an instrument scanning speed of 50 nm/min with a response time of 1 s. The spectra were averaged over four scans. […]

[3] = test system: STIB 900 strain of Trypanosoma brucei rhodesiense (T. b. r.); test: In vivo T. b. r. STIB 900 mouse model; settings: 20 mg/kg ip
Protocol: Groups of four mice were infected intraperitoneally with 2×10^5 bloodstream forms of T. b. r. STIB 900 which originates from a patient in Tanzania. On days 3, 4, 5, and 6 post-infection the experimental groups were treated with the drugs either by the intraperitoneal or for prodrugs by the oral route. Usually the highest tolerated dose was used which was determined in a pretoxicological experiment. Parasitemia of the mice was checked daily up to day 14 post-infection and thereafter 2 times per week up to day 60. One group of mice was not treated and acted as control. For relapsing mice, the day of death was recorded and the survival time determined.

## N=C(N)c1ccc(-c2ccc(-c3ccc(C(=N)N)o3)o2)cc1 [Compound 8, 5′-(4-Amidinophenyl)-2,2′-bifuran-5-carboxamidine]
[1]
  exciton splitting in CD spectra (in words): exhibited exciton splitting
[2]
  exciton splitting in CD spectra (in words): exhibited exciton splitting
[3]; mice cured / mice infected, days 3-6 post-infection
  In Vivo T.b.r. cures: 2/4
[3]; observation up to day 60
  In Vivo T.b.r. survival time: > 45.5 days
